Experimental data: patent US7973075B2, “Kainate receptor-selective epimeric analogs of dysiherbaine” (priority 2007, dated 2011)
Several values for one entry are separate records, joined by “and”; a condition that tells them apart may be missing. Identical values can stand only once. Like-named read-outs stand apart in the source and are kept apart here.

Experiments:
GluR6a = target: T1, GluR6a (Rattus norvegicus, UniProt P42260); experiment: Radioligand binding ([3H]kainate displacement), HEK-293-T/17 membranes, Example 2; conditions: for Ki: [3H]kainate displacement, Cheng-Prusoff
T1 construct: expressed in transfected cells; host or cells: HEK-293-T/17
Protocol: (§1) Radioligand binding. Membrane preparations from HEK-293-T/17 cells were prepared and used in radioligand binding assays as described previously (Sanders et al., 2005). Unlabeled analogs were used to displace [3H]kainate (10-20 nM, PerkinElmer Life and Analytical Sciences, Boston, Mass.) or [3H]AMPA (20 nM, PerkinElmer Life and Analytical Sciences, Boston, Mass.) from KARs and AMPARs, respectively. Nonspecific binding was determined in the presence of 1 mM glutamate. After 1 hour incubation at 4° C., samples were harvested by rapid filtration onto Whatman GF/C membranes. Upon addition of scintillation fluid, membranes were incubated for 1 hour at room temperature. A Beckman LS5000TD scintillation counter was used for quantification (Beckman Coulter Inc., Fullerton, Calif.). Data were plotted and fit with a one-site competition curve with fixed minima and maxima using Prism 4 (GraphPad Software, Inc). Ki's were calculated with the Cheng-Prusoff equation using the determined IC5o values and the radioligand Kd. Data were plotted and fit with a one-site competition curve with fixed minima (0) and maxima (100) (Prism4, GraphPad Software, Inc.). Correlation analysis was performed with these binding data and the seizure activity of each analog, represented as ED50 values.
(§2) The pharmacological profiles of the Group I analogs, 8-deoxy-neoDH and 9-deoxyneoDH, were analyzed initially in radioligand binding experiments with expressed recombinant AMPA and kainate receptor subunits. Displacement of [3H]kainate from cell membranes with a range of analog concentrations yielded IC50 values that were then used to calculate Ki values for each analog/receptor combination. Both Group 1 analogs retained high affinity only for GluR5-2a KAR subunits (FIG. 8A). […] Weak binding to other KAR and AMPAR subunits was observed, with all Ki values estimated at >10 μM (n=3-5; Table 3, FIG. 8A).
(§3) For comparison, the Ki values for neoDH and MSVIII-19 are included in the table (Sanders et al., 2005). Removal of the C9 hydroxyl eliminated binding to all receptor subunits (Ki values estimated at >100 μM), with the exception of GluR5-2a KARs.

GluR6 = target: T2, GluR6 (Rattus norvegicus, UniProt P42260); experiment: Radioligand displacement ([3H]kainate), Example 1; format: binding
T2 construct: expressed in transfected cells; HEK 293 (patch clamp)
Protocol: (§4) Dysiherbaine (DH) was used as a template for generating novel KAR ligands. (See FIG. 1.) These included 8-deoxy and 9-deoxy analogs of neodysiherbaine (neoDH). (See FIG. 2.) The binding of these analogs to glutamate receptors was assessed by radioligand binding as follows. Membrane preparations from COS-7 or HEK-T/17 cells were isolated 2-3 days after transfection. Displacement assays were performed as described previously (Swanson et al., NEURON 1997; 19:913-26). Unlabeled marine toxin analogs were used to displace [^3H]kainate or [^3H]AMPA (PerkinElmer) from kainate and AMPA receptors, respectively. (See FIG. 2 and Table 1.)
(§5) Non-specific binding was defined in the presence of 1 mM glutamate. The effect of these analogs on electrophysiology was assessed as follows. HEK 293 cells were transfected with receptor cDNAs in combination with eGFP cDNA. Patch-clamp recordings from transfected cells were made 24-72 hours later using a fast application system described previously (Swanson et al., NEURON 1997; 19:913-26). (See FIG. 3.)
(§6) Additional epimer analogs were generated. These included 4-epi-neodysiherbaine, 8-epi-neodysiherbaine, 9-epi-neodysiherbaine, and 8,9-epi-neodysiherbaine. (See FIG. 4.) The binding of these analogs to glutamate receptors was assessed by radioligand binding as described above. (See FIG. 4 and Table 2.)

KA2 [1] = target: T3, KA2 (Rattus norvegicus, UniProt Q63273); experiment: Radioligand displacement ([3H]kainate), Example 1; format: binding
T3 construct: expressed in transfected cells; host or cells: HEK-293-T/17
T3 sequence (Q63273 15-979): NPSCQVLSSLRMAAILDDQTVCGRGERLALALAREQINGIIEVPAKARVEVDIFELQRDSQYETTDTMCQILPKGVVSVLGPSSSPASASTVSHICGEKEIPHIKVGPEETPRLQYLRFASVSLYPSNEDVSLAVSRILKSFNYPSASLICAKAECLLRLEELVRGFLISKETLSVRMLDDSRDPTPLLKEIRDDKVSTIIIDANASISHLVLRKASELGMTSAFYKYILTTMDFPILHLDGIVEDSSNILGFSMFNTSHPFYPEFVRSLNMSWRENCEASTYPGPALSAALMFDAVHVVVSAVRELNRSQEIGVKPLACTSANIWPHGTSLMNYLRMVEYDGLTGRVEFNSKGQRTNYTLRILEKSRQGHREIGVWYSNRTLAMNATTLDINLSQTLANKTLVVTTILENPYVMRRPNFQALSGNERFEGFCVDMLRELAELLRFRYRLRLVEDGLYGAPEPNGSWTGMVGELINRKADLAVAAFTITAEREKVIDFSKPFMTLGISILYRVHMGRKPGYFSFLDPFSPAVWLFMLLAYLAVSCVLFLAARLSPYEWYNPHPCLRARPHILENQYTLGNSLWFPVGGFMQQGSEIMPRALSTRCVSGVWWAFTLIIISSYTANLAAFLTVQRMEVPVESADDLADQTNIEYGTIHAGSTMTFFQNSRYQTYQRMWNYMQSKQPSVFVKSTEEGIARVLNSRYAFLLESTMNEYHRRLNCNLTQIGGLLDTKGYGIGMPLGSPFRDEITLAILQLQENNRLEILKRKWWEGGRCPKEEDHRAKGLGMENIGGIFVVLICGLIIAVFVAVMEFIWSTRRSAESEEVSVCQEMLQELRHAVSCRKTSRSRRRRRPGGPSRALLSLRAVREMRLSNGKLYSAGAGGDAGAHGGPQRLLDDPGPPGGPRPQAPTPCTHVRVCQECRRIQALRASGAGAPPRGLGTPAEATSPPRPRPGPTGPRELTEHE
Protocol: as §4, §5, §6

GluR5 = target: T4, GluR5 (Rattus norvegicus, UniProt P22756); experiment: Radioligand displacement ([3H]kainate), Example 1; format: binding
T4 construct: expressed in transfected cells; HEK 293 (patch clamp)
Protocol: as §4, §5, §6

[2] = target: T5, other KAR and AMPAR subunits; experiment: Radioligand binding, remaining subunits stated collectively, Example 2; conditions: estimated; read-out: Ki values at other KAR and AMPAR subunits (all subunits except those named)
T5 construct: Ki values at other KAR and AMPAR subunits (all subunits except those named); other: estimated
Protocol: as §1, §2, §3

GluR7a = target: T6, GluR7a (Rattus norvegicus, UniProt P42264); experiment: Radioligand binding ([3H]kainate displacement), HEK-293-T/17 membranes, Example 2
T6 construct: expressed in transfected cells; host or cells: HEK-293-T/17
Protocol: as §1, §2, §3

KA2 [3] = target: T3, KA2; experiment: as above; conditions: Cheng-Prusoff
Protocol: as §1, §2, §3

GluR5-2a = target: T7, GluR5-2a (Rattus norvegicus, UniProt P22756, DEL402-416); experiment: as above; conditions: Cheng-Prusoff
T7 construct: expressed in transfected cells; host or cells: HEK-293-T/17
Protocol: as §1, §2, §3

[4] = test system: other KAR and AMPAR subunits; experiment: Radioligand binding, remaining subunits stated collectively, Example 2
Protocol: as §1, §2, §3

[5] = Tables 1-2, read-out: GluR6 binding affinity (displacement of [3H]kainate)
[6] = Tables 1-2, read-out: KA2 binding affinity (displacement of [3H]kainate)
[7] = Tables 1-2, membranes of transfected COS-7 or HEK-T/17 cells, read-out: GluR5 binding affinity (displacement of [3H]kainate)
[8] = [3H]kainate displacement, Cheng-Prusoff, read-out: Ki GluR7a
[9] = [3H]kainate displacement, read-out: Ki KA2

T6 sequence (P42264 32-919): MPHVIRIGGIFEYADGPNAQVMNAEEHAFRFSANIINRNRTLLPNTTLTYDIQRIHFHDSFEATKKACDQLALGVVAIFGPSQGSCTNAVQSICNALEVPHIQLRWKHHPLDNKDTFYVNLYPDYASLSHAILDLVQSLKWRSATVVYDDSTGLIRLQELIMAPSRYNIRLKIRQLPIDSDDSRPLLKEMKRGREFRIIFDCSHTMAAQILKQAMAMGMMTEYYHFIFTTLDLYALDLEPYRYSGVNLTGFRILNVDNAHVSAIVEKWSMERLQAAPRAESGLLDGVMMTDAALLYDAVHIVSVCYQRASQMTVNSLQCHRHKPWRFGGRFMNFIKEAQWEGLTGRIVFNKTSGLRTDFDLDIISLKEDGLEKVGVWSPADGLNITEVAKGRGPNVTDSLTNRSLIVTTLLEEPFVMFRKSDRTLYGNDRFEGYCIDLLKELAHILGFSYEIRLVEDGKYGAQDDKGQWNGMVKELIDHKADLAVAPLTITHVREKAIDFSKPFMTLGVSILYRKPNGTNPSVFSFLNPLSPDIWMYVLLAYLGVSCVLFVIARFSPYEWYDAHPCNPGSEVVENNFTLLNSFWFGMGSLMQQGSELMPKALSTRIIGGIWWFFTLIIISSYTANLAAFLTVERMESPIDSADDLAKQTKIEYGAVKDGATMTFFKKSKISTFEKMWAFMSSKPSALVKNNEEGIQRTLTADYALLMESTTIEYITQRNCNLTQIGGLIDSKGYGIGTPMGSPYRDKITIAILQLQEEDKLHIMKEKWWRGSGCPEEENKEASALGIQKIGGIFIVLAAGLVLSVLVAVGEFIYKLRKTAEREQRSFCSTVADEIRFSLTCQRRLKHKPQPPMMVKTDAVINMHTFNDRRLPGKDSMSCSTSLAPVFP
T2 sequence (P42260 32-908): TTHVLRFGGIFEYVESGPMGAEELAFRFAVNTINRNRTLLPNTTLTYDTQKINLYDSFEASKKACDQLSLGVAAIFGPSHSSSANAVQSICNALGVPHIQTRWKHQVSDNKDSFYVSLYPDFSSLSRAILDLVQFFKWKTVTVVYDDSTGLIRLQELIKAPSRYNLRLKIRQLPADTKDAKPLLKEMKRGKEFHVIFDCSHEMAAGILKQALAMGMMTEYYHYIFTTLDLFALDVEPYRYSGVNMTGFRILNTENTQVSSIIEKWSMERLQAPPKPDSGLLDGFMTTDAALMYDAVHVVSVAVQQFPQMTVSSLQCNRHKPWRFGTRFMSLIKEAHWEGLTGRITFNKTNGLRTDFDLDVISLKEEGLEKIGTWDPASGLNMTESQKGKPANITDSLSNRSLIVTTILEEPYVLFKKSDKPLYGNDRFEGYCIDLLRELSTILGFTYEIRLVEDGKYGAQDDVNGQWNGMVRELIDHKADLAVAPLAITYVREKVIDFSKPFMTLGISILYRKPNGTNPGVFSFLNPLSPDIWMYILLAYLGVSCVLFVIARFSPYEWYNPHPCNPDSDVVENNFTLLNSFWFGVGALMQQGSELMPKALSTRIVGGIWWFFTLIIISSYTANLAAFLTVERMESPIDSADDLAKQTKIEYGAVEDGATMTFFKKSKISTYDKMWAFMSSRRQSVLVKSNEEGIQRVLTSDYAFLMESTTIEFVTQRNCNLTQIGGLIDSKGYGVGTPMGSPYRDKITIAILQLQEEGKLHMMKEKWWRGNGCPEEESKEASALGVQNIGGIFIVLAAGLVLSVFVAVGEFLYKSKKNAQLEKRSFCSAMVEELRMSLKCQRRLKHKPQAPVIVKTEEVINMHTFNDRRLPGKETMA
T1 sequence (P42260 32-908): as above
T4 sequence (P22756 with tags, fused parts or gaps isoform P22756-2): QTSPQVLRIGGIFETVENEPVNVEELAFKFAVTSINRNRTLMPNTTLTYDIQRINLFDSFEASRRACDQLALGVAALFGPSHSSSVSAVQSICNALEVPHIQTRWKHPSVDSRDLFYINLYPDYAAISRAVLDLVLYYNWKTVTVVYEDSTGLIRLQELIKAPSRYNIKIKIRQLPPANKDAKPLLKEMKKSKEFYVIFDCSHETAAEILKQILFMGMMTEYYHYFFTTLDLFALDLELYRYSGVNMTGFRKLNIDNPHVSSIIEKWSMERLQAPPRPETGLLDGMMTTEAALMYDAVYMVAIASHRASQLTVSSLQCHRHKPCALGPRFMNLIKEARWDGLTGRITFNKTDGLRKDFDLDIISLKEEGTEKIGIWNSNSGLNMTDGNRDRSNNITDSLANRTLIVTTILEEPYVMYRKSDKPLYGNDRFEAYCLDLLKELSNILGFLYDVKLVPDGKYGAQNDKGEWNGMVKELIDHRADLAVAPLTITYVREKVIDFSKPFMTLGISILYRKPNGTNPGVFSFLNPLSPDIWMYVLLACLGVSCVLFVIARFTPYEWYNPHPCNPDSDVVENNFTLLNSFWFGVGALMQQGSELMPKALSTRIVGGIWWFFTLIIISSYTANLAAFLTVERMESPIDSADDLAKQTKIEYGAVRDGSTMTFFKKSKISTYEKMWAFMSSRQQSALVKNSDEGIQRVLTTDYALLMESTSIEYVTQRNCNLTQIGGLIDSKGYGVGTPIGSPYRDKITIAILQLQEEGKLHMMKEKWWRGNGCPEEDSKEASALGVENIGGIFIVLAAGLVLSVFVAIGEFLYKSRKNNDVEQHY
T7 sequence (P22756 with tags, fused parts or gaps isoform P22756-2 limits assumed, stated change not applied): as the sequence (P22756 with tags, fused parts or gaps isoform P22756-2) above

| SMILES | binding affinity for GluR6a subunit (GluR6a) | Ki (GluR6; [5]) [µM] | Ki (KA2 [1]; [6]) [µM] | Ki (GluR5; [7]) [µM] | Ki [2] [µM] | Ki (GluR6a; read-out: Ki GluR6a) [µM] | Ki (GluR7a; [8]) [µM] | Ki (KA2 [3]; [9]) [µM] | Ki (GluR5-2a; read-out: Ki GluR5-2a) | binding to other KA and AMPAR subunits [4] | also measured |
| --- | --- | --- | --- | --- | --- | --- | --- | --- | --- | --- | --- |
| N[C@@H](C[C@]1(C(=O)O)C[C@H]2OCCC[C@H]2O1)C(=O)O [MSVIII-19, 8,9-dideoxy-neoDH] | do not exhibit measurable affinity |  |  |  |  |  |  |  |  |  |  |
| N[C@@H](C[C@]1(C(=O)O)C[C@H]2OCC[C@@H](O)[C@H]2O1)C(=O)O [9-deoxy-neoDH] | do not exhibit measurable affinity | > 100 | > 100 | 0.168 | > 100 | > 100 | > 100 | > 100 | 0.169 µM |  |  |
| NC(CC1(C(=O)O)CC2OCC(F)C(O)C2O1)C(=O)O (stereo not drawn) [9-F-8-epi-neoDH] | do not exhibit measurable affinity |  |  |  |  | > 100 | > 100 | >100 | 0.028 µM |  |  |
| N[C@@H](C[C@@]1(C(=O)O)CC2OCC(O)C(O)C2O1)C(=O)O (single isomer, unassigned) [2,4-epi-neoDH, 2,4-epi-neodysiherbaine] |  |  |  |  | > 100 | 7.7 | > 100 | > 100 | 2.4 µM |  | binding to GluR7 receptor (GluR7a): Neither 2,4-epineoDH nor 4-epi-neoDH bound the GluR7 receptor appreciably |
| NC(CC1(C(=O)O)CC2OCC(O)C(O)C2O1)C(=O)O (stereo not drawn) [8-epi-neoDH, 8-epi-neodysiherbaine] |  | 22 | >100 | 0.034 |  | 22 | 1.7 | >100 | 0.034 µM |  |  |
| NC(CC1(C(=O)O)CC2OCC(O)C(O)C2O1)C(=O)O (stereo not drawn) [9-epi-neoDH, 9-epi-neodysiherbaine] | do not exhibit measurable affinity | > 100 | >100 | 0.296 |  | > 100 | > 100 | >100 | 0.292 µM | inactive at other subunits |  |
| N[C@@H](C[C@@]1(C(=O)O)CC2OCC(O)C(O)C2O1)C(=O)O (single isomer, unassigned) [4-epi-neoDH, 4-epi-neodysiherbaine] |  |  |  |  |  | 6.7 | > 100 | ~30 | 0.559 µM and ~0.56 µM | weakly displaced radioligand | binding to GluR7 receptor (GluR7a): Neither 2,4-epineoDH nor 4-epi-neoDH bound the GluR7 receptor appreciably |
| NC(CC1(C(=O)O)CC2OCC(O)C(O)C2O1)C(=O)O (stereo not drawn) [8,9-epi-neoDH, 8,9-epi-neodysiherbaine] |  | > 100 | >100 |  |  | > 100 | > 100 | >100 | 48 µM | effectively eliminated affinity for all receptor subunits | Ki (GluR5; Table 2, read-out: GluR5 binding affinity (displacement of [3H]kainate)): 48 µM |
| N[C@@H](C[C@]1(C(=O)O)C[C@H]2OC[C@@H](O)C[C@H]2O1)C(=O)O [8-deoxy-neoDH] |  |  |  |  | > 10 |  |  |  |  |  | Ki (GluR6): 76 µM; Ki (KA2 [1]): 36 µM; Ki (GluR5): 0.0011 µM; Ki (GluR6a; Ki GluR6a): 48 µM; Ki (GluR7a): 2.9 µM; Ki (KA2 [3]; Ki KA2, [3H]kainate displacement): 20 µM; Ki (GluR5-2a; Ki GluR5-2a): 0.0015 µM |
